These results are taken from patent publication US10844062B2, “Pyridine derivative inhibiting RAF kinase and vascular endothelial growth factor receptor, method for preparing same, pharmaceutical composition containing same, and use thereof” (SAMJIN PHARMACEUTICAL CO., LTD., priority 2016, dated 2020).

Where two headings read alike, the source gives them in different places. Bounds are passed on as bounds.

Assay [1] addresses B-Raf V600E (Homo sapiens (Human), UniProt P15056, V600E). Description: Raf kinase inhibitory activity (Raf/MEK1/MAPK2 cascade, MBP phosphorylation, 32P). The format is biochemical. How it is done:
(§1) In order to examine the inhibitory activities of the compounds of the present invention against Raf kinases (B-Raf, C-Raf, B-Raf^V600E), the following experiment was performed.
(§2) (1) Consecutive Signal Transduction Reaction
(§3) To a centrifugation tube, 20 μl of a dilution solvent (20 mM MOPS, pH 7.2, 25 mM (3-glycerol phosphate, 5 mM EGTA, 1 mM sodium orthovanadate, 1 mM dithiothreitol) and 20 μl of a Mg/ATP mixture (500 μM ATP and 75 mM magnesium chloride) were added. Then, each of the derivative compounds of formula 1 was added. As a control, 1 ng of activated raf, 0.4 ng of inactivated MEK1 and 1 μg of inactivated MAPK2 were added without adding Example compounds. The solutions in the tube were concentrated at the bottom of the tube by centrifugation, and then allowed to react at 30° C. for 30 minutes, and 4 μl of the mixture solution was taken and used in the next experimental step.
(§4) (2) Phosphorylation of Substrate Protein MBP by MAPK2
(§5) To 4 μl of the mixture solution taken in (1), 10 μl of a dilution solvent, 20 μg of MBP as a substrate, and 10 μl of diluted [γ-32P]ATP (1 μCi/μL) were added. The solutions in the tube were concentrated at the bottom of the tube by centrifugation, and then allowed to react at 30° C. for 30 minutes. 25 μl of the reaction solution was carefully placed on the center of 2 cm×2 cm P81 filter paper for 30 seconds. Next, the filter paper was washed three times with 0.75% phosphoric acid solution for 10 minutes each time and washed once with acetone for 5 minutes. Next, the filter paper was transferred into a scintillation vial, and 5 ml of a scintillation cocktail was added thereto. Raf activity inhibition rate (IC50) was measured by reading the radioactivity with a scintillation counter in comparison with the control.

Assay [2] has as its target B-Raf (Homo sapiens (Human), UniProt P15056). Described as above. The assay is classed as biochemical. Here is the method: as §1, §2, §3, §4, §5
Assay [3] deals with C-Raf (Homo sapiens (Human), UniProt P04049). Described as above. The format is biochemical. Here is the method:
as §1, §2, §3, §4, §5

For assay [4], the system named is HCT-116 KRAS G13D (colon). Description: MTT assay. The conditions noted are these: Homo sapiens, HCT-116, 72 h; Table 5; 3 days incubation; read-out: MTT assay IC50 KRAS mutant (Colon) HCT-116 KRAS G13D. The assay is classed as cell-based. An outline of the steps: (§6)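 Cells were seeded at line-dependent density and stabilised overnight at 37 °C, then exposed to compounds for 3 days at 37 °C. MTT was then added for 2 h and the formazan dissolved in DMSO.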
(Tetrazolium assays rely on reduction of a dye to a coloured formazan, in cell work by metabolically active cells.)

The test system of assay [5] is HUVEC (VEGF). Description: MTT assay. The assay is classed as cell-based. The conditions noted are these: Homo sapiens, 72 h, Table 5, 3 days incubation. A digest of the protocol: as §6
The subject of assay [6] is SW620 KRAS G12V (colon). Description: MTT assay. The assay is classed as cell-based. The conditions noted are these: Homo sapiens, SW-620, 72 h; Table 5; 3 days incubation; read-out: MTT assay IC50 KRAS mutant (Colon) SW620 KRAS G12V. A digest of the protocol:
as §6

Assay [7] has as its system WiDR BRAF V600E (colon). Description: MTT assay. The note with it: Homo sapiens, 72 h, Table 5, 3 days incubation, read-out: MTT assay IC50 BRAF mutant (Colon) WiDR BRAF V600E. The format is cell-based. A digest of the protocol: as §6
Assay [8] relates to LS513 KRAS G12V (colon). Description: MTT assay. The conditions noted are these: Homo sapiens, LS-513, 72 h, 3 days incubation, read-out: MTT assay IC50 KRAS mutant (Colon) LS513 KRAS G12V. The assay is classed as cell-based. A digest of the protocol:
as §6

In assay [9] the test system is A-375P BRAF V600E (melanoma). Description: MTT assay. The format is cell-based. The note with it: A375P, 72 h; Table 5; 3 days incubation. A digest of the protocol:
as §6

The subject of assay [10] is SK-MEL2 NRAS Q61R (melanoma). Description: MTT assay. The assay is classed as cell-based. The note with it: Homo sapiens, SK-MEL-2, 72 h; Table 5; 3 days incubation. A digest of the protocol: as §6
The test system of assay [11] is LS513 human colorectal cancer cell line xenograft. Description: Antitumor effect on human colorectal cancer LS513 cell line xenograft. The assay is classed as in vivo, Balb/c nu/nu nude mice. The conditions noted are these: oral, twice a day, 14 days. The text has this: In this experiment, 5 to 6-week-old female Balb/c nu/nu nude mice (weighed 18 to 20 g) were used. The mice were provided from Nara Biotech Co., Ltd. During the experiment, all the animals were housed on a mouse constant temperature/constant humidity shelf (Individually Ventilated Cages System, LAB & BIO).
Each cage (37.2 cm length×19.2 cm width×13.1 cm height) was sterilized with a sterilizer, and eight mice were received in each cage. The mice were maintained in a hygienic environment controlled to a temperature of 20 to 24° C. and a humidity of 40 to 70% with a 12-hr light/12-hr dark cycle. The mice were allowed to access sterilized feed and drinking water ad libitum. The care and treatment of these animals were carried out according to the Laboratory Animal Care Guidelines of Samjin Pharmaceutical Co., Ltd.
The mice were acclimated to the housing facility for 1 week, and then 0.1 mL of a cell suspension containing 1×10^7 cells was injected subcutaneously into the right flank of each mouse. After cell transplantation, the volume of the formed tumor was measured, and mice with formed tumors having a volume of 150 mm^3 or more were randomly divided into groups (each consisting of 7 to 8 animals) for treatment with the test compounds and a control. […] Administration of the drugs was continued for 14 days. […] At 3-day intervals from the starting day of the administration, the long axis and short axis of the tumor were measured with digital vernier calipers, and the tumor volume was calculated using the following equation and recorded: Tumor volume (TV)=Long axis×short axis^2/2.
Tumor growth inhibition for absolute tumor volume was calculated using the following equation. In the following equation, V0 is the tumor volume on the first day of drug administration (day 0), and Vt is the tumor volume after last drug administration.

The test system is the same in assay [12]. Described as above. The assay is classed as in vivo, Balb/c nu/nu nude mice. The conditions noted are these: oral.

Chain of B-Raf (P15056 whole entry): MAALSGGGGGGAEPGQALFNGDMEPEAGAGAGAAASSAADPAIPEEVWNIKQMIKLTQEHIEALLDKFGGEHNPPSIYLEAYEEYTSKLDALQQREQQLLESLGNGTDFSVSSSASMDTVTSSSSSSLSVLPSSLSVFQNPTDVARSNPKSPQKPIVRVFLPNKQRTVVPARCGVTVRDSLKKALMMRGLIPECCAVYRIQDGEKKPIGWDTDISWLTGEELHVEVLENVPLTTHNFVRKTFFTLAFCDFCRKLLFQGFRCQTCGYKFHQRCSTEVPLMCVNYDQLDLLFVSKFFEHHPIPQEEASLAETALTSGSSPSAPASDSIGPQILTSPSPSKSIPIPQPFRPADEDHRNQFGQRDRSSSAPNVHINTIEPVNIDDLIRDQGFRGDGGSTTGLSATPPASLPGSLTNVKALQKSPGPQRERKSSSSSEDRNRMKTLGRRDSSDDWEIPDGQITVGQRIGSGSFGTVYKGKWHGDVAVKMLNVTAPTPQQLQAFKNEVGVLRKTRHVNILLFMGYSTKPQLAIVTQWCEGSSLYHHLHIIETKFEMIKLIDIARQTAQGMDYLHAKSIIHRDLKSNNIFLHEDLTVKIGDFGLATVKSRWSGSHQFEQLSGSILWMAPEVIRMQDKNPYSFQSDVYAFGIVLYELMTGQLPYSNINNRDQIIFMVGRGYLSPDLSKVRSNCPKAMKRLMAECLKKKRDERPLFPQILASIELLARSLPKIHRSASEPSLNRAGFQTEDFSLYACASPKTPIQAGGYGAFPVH
Chain of C-Raf (P04049 whole entry): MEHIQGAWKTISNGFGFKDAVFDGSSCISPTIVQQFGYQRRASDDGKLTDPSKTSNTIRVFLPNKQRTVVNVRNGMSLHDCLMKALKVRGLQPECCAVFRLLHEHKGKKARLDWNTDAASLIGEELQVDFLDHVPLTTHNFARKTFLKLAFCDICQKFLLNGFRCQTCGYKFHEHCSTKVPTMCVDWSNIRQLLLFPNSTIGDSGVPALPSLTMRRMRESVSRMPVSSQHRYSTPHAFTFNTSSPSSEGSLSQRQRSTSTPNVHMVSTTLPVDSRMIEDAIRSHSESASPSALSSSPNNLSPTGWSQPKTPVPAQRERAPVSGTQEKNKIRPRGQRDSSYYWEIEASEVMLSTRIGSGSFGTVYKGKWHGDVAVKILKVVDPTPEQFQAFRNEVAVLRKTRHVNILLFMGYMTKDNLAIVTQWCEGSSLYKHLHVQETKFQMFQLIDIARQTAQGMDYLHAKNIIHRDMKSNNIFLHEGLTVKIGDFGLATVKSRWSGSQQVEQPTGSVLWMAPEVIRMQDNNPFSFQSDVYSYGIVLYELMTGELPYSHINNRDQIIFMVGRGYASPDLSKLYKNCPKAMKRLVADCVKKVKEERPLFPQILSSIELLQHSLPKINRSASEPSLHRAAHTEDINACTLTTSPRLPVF
Chain of B-Raf V600E (P15056 whole entry V600E): as the sequence (P15056 whole entry) above, with V600E counted along it

Regarding `O=C(Nc1ccc(F)c(Nc2ncccc2-c2ncnc3[nH]cnc23)c1F)c1cccc(C(F)(F)F)c1` [Example 1, N-(3-(3-(9H-purin-6-yl)pyridin-2-ylamino)-2,4-difluorophenyl)-3-(trifluoromethyl)benzamide], the half-maximal inhibitory concentration (IC50) (commonly the concentration at which inhibition is half-maximal) in [1] was determined as 16 nM; in [2], 34 nM; in assay [3], 23 nM; in assay [4], 101 nM; in assay [5] it was 22 nM; in assay [6], 849 nM. The IC50 in [7] turned out to be 115 nM; in assay [8] (Table 4), 1180 nM; in assay [8] (Table 5) it was 278 nM; in assay [9], 95 nM.
With `CC(C)(C#N)c1cccc(C(=O)Nc2ccc(F)c(Nc3ncccc3-c3ncnc4[nH]cnc34)c2F)c1` [Example 9, N-(3-(3-(9H-purin-6-yl)pyridin-2-ylamino)-2,4-difluorophenyl)-3-(2-cyanopropan-2-yl)benzamide], the IC50 was found to be 0.2 nM in assay [1]; 2 nM in [2]; 0.6 nM in [3]; 75 nM in assay [4]; 44 nM in [5]; 643 nM in assay [6]. Moreover, the IC50 is 58 nM in assay [7]; 656 nM in [8] (Table 4); 138 nM in assay [8] (Table 5); 40 nM in assay [9]; 106 nM in assay [10].
Take `CC(C)(C#N)c1cccc(C(=O)Nc2cc(Nc3ncccc3-c3ncnc4[nH]cnc34)ccc2F)c1` [Example 21, N-(5-(3-(9H-purin-6-yl)pyridin-2-ylamino)-2-fluorophenyl)-3-(2-cyanopropan-2-yl)benzamide]: the half-maximal inhibitory concentration (IC50) amounted to 10 nM in [1]; 21 nM in assay [2]; 10 nM in assay [3]; 63 nM in assay [4]; 40 nM in assay [5]; 249 nM in [6]. Also, the half-inhibitory concentration (IC50) in [7] was 28 nM; in assay [8] (Table 4), 333 nM; in assay [8] (Table 5), 160 nM; in assay [9], 24 nM; in assay [10] it was 129 nM. Also, the “antitumor effect (tumor growth inhibition) compared to the control group” value in assay [11] (30 mg/kg) is recorded as “about 66.7%”; in [11] (60 mg/kg) it was 90.3%.
Turning to `CC(C)(C#N)c1cccc(C(=O)Nc2cccc(Nc3ncccc3-c3ncnc4[nH]cnc34)c2)c1` [Example 23, N-(3-(3-(9H-purin-6-yl)pyridin-2-ylamino)phenyl)-3-(2-cyanopropan-2-yl)benzamide], the IC50 in [1] came out at 7 nM; in assay [2], 17 nM; in assay [3], 8 nM; in [4], 50 nM; in [5], 28 nM; in [6] it was 321 nM. Besides, the 50% inhibitory concentration (IC50) came out at 62 nM in assay [7]; 687 nM in assay [8] (Table 4); 95 nM in assay [8] (Table 5); 12 nM in assay [9]; 58 nM in assay [10].
As to `O=C(Nc1cc(Nc2ncccc2-c2ncnc3[nH]cnc23)ccc1F)c1cccc(C(F)(F)F)c1` [Example 30, N-(5-(3-(9H-Purin-6-Yl)Pyridin-2-Ylamino)-2-Fluorophenyl)-3-(Trifluoromethyl)Benzamide], the IC50 in assay [1] was found to be 5.2 nM; in [2], 2.7 nM; in assay [3], 0.7 nM; in [4], 145 nM; in assay [5], 13 nM; in assay [6], 864 nM. Besides, the IC50 in assay [7] was found to be 636 nM; in assay [8] (Table 4), 143 nM; in assay [8] (Table 5), 79 nM; in assay [9], 246 nM; in assay [10] it was 122 nM. Also, the “antitumor effect (tumor growth inhibition) compared to the control group” value was 76.9% in [11] (30 mg/kg) and 88.7% in [11] (60 mg/kg).
As to `O=C(Nc1cc(Nc2ncccc2-c2ncnc3[nH]cnc23)ccc1F)c1cc(F)cc(C(F)(F)F)c1` [Example 36, N-(5-(3-(9H-Purin-6-Yl)Pyridin-2-Ylamino)-2-Fluorophenyl)-3-Fluoro-5-(Trifluoromethyl)Benzamide], the IC50 in [1] was determined as 30 nM; in assay [2], 71 nM; in assay [3], 41 nM; in [4] it was 117 nM; in assay [5], 15 nM; in assay [6] it was 675 nM. Besides, the 50% inhibitory concentration (IC50) came out at 644 nM in assay [7]; 250 nM in [8] (Table 4); 126 nM in assay [8] (Table 5); 271 nM in [9]; 388 nM in assay [10]. For the same compound, the “antitumor effect (tumor growth inhibition) compared to the vehicle control” value in [11] (60 mg/kg or 30 mg/kg (dose not specified per compound)) came out at 78.5%.
For `COc1ccc(C(=O)Nc2ccc(F)c(Nc3ncccc3-c3ncnc4[nH]cnc34)c2F)cc1` [Example 53, N-(3-(3-(9H-Purin-6-Yl)Pyridin-2-Ylamino)-2,4-Difluorophenyl)-4-Methoxybenzamide], the IC50 in assay [1] is 6 nM; in assay [2], 14 nM; in assay [3], 7 nM; in [4], 17 nM; in assay [5], 5.8 nM; in [6] it was 180 nM. Also, the concentration for half-maximal inhibition (IC50) in [7] was 391 nM; in assay [8] (Table 4), above 10000 nM; in assay [8] (Table 5), 29 nM; in assay [9], 4 nM; in [10] it was 35 nM.
`O=C(Nc1cc(Nc2ncccc2-c2ncnc3[nH]cnc23)ccc1F)c1cc(Cl)cc(C(F)(F)F)c1` [Example 135, N-5-[(3-(9H-purin-6-yl)pyridin-2-yl)amino]-2-fluorophenyl-3-chloro-5-(trifluoromethyl)benzamide]: the half-inhibitory concentration (IC50) in [1] came to 86 nM; in [2], 161 nM; in assay [3], 34 nM; in assay [4], 74 nM; in [5], 733 nM; in assay [6], 317 nM. In addition, the IC50 in assay [7] came to 68 nM; in [8] (Table 4), 80 nM; in assay [8] (Table 5), 88 nM. Further, the “antitumor effect (tumor growth inhibition)” value came out at 52.36% in [12] (12.5 mg/kg, 21 days); 74.73% in assay [12] (25 mg/kg, 21 days); 86.85% in assay [12] (50 mg/kg, 21 days); 92.66% in assay [12] (50 mg/kg, once a day, 13 days).
